Reference: PubChem BioAssay AID248 (DTP/NCI, 2004)
“And” between values parts separate entries of the source, which are not always exact repeats. Equal entries are not always repeated. Toxic doses and inconclusive results are not listed. No stated cut-off is given here; in the data, active means T/C of 150% or more; inactive means T/C below 125%.

Test system: L1210 leukemia ip in BDF1 mice, survival T/C
Experiment: NCI In Vivo Anticancer Drug Screen. Data for tumor model L1210 Leukemia (intraperitoneal) in B6D2F1 (BDF1) mice
Conditions: endpoint: mean survival time, higher = longer survival
Method: The antitumor activity of compounds was measured in mice bearing transplantable tumors. Survival or tumor size were measured and the results are expressed as the measurement made in the treated group (T) divided by the measurement made in the vehicle treated control group (C). The tumor model used in this assay is L1210 Leukemia (intraperitoneal) in B6D2F1 (BDF1) mice

[1] = dose: 100.0 mg/kg/injection, schedule: Q04DX003 (ip), vehicle: Klucel (hydroxypropylcellulose) (HPC)
[2] = dose: 200.0 mg/kg/injection, schedule: Q04DX003 (ip), vehicle: Klucel (hydroxypropylcellulose) (HPC)
[3] = dose: 400.0 mg/kg/injection, schedule: Q04DX003 (ip), vehicle: Klucel (hydroxypropylcellulose) (HPC)
[4] = dose: 100.0 mg/kg/injection, schedule: Q01DX009 (ip), vehicle: Klucel (hydroxypropylcellulose) (HPC)
[5] = dose: 200.0 mg/kg/injection, schedule: Q01DX009 (ip), vehicle: Klucel (hydroxypropylcellulose) (HPC)
[6] = dose: 400.0 mg/kg/injection, schedule: Q01DX009 (ip), vehicle: Klucel (hydroxypropylcellulose) (HPC)
[7] = dose: 100.0 mg/kg/injection, schedule: Q04DX003 (ip), vehicle: saline
[8] = dose: 200.0 mg/kg/injection, schedule: Q04DX003 (ip), vehicle: saline
[9] = dose: 400.0 mg/kg/injection, schedule: Q04DX003 (ip), vehicle: saline
[10] = dose: 75.0 mg/kg/injection, schedule: Q01DX001 (ip), vehicle: saline
[11] = dose: 100.0 mg/kg/injection, schedule: Q01DX001 (ip), vehicle: carboxymethylcellulose (CMC)
[12] = dose: 200.0 mg/kg/injection, schedule: Q01DX001 (ip), vehicle: carboxymethylcellulose (CMC)
[13] = dose: 400.0 mg/kg/injection, schedule: Q01DX001 (ip), vehicle: carboxymethylcellulose (CMC)
[14] = dose: 100.0 mg/kg/injection, schedule: Q01DX001 (ip), vehicle: saline with Tween-80
[15] = dose: 200.0 mg/kg/injection, schedule: Q01DX001 (ip), vehicle: saline with Tween-80
[16] = dose: 400.0 mg/kg/injection, schedule: Q01DX001 (ip), vehicle: saline with Tween-80

Measured: T/C

CCOC(=O)c1ccc(NC(=O)Sc2cccc(C)c2)cc1
inactive: [1] 93 % of control | [2] 97 % of control | [3] 96 % of control

COc1ccc(C(=O)N/N=C/c2ccccc2Cl)cc1
inactive: [4] 106 % of control | [5] 97 % of control | [6] 102 % of control

CC(C)=NNC(=O)C1CC=CC1C(Cl)Cl (centres undefined)
inactive: [4] 96 % of control | [5] 98 % of control | [6] 93 % of control

CCCCCCCCCCCC(CCCCCCCC)CCCCCCCC
inactive: [7] 94 % of control | [8] 93 % of control | [9] 100 % of control

COc1ccc(CNC(C)(C)CO)c(OC)c1
inactive: [10] 101 % of control | dose: 150.0 mg/kg/injection, schedule: Q01DX001 (ip), vehicle: saline 102 % of control | dose: 300.0 mg/kg/injection, schedule: Q01DX001 (ip), vehicle: saline 98 % of control

N#CCCN(C(=O)Nc1cccc(C(F)(F)F)c1)C1CCCCC1
inactive: [11] 100 % of control and 103 % of control | dose: 100.0 mg/kg/injection, schedule: Q01DX009 (ip), vehicle: carboxymethylcellulose (CMC) 90 % of control | dose: 100.0 mg/kg/injection, schedule: Q04DX002 (ip), vehicle: carboxymethylcellulose (CMC) 93 % of control and 89 % of control | dose: 100.0 mg/kg/injection, schedule: Q04DX003 (ip), vehicle: carboxymethylcellulose (CMC) 100 % of control and 103 % of control | [12] 96 % of control and 100 % of control | dose: 200.0 mg/kg/injection, schedule: Q01DX009 (ip), vehicle: carboxymethylcellulose (CMC) 90 % of control | dose: 200.0 mg/kg/injection, schedule: Q04DX002 (ip), vehicle: carboxymethylcellulose (CMC) 93 % of control | dose: 200.0 mg/kg/injection, schedule: Q04DX003 (ip), vehicle: carboxymethylcellulose (CMC) 93 % of control | [13] 92 % of control and 102 % of control | dose: 400.0 mg/kg/injection, schedule: Q04DX002 (ip), vehicle: carboxymethylcellulose (CMC) 86 % of control | dose: 400.0 mg/kg/injection, schedule: Q04DX003 (ip), vehicle: carboxymethylcellulose (CMC) 95 % of control

O=C(Nc1ccc(Cl)c(Cl)c1)Oc1ccc2ccccc2c1
inactive: [4] 90 % of control | [1] 104 % of control | [5] 101 % of control | [2] 90 % of control | [6] 95 % of control | [3] 90 % of control

CC/[N+]([O-])=C/c1ncc([N+](=O)[O-])n1C
inactive: dose: 100.0 mg/kg/injection, schedule: Q04DX002 (ip), vehicle: saline 114 % of control | dose: 200.0 mg/kg/injection, schedule: Q04DX002 (ip), vehicle: saline 118 % of control | dose: 400.0 mg/kg/injection, schedule: Q04DX002 (ip), vehicle: saline 114 % of control

O=c1[nH]cc(CC(F)(F)C(F)(F)F)c(=O)[nH]1
inactive: dose: 50.0 mg/kg/injection, schedule: Q01DX005 (ip), vehicle: other 87 % of control

CSCCC(N)C(=O)O (centres undefined)
inactive: dose: 40.0 mg/kg/injection, schedule: Q01DX009 (ip), vehicle: saline 96 % of control | dose: 80.0 mg/kg/injection, schedule: Q01DX009 (ip), vehicle: saline 107 % of control | [11] 92 % of control | [1] 104 % of control | dose: 160.0 mg/kg/injection, schedule: Q01DX009 (ip), vehicle: saline 102 % of control | [12] 95 % of control | [2] 98 % of control | dose: 320.0 mg/kg/injection, schedule: Q01DX009 (ip), vehicle: saline 98 % of control | [13] 103 % of control | [3] 102 % of control

C[Si](F)(c1cccc2ccccc12)c1cccc2ccccc12
inactive: [14] 97 % of control | [15] 103 % of control | [16] 102 % of control

Cc1cc(=O)[nH]c2c(C)cc(Cc3cc(C)c4[nH]c(=O)cc(C)c4c3)cc12
inactive: [11] 96 % of control | [12] 101 % of control | [13] 103 % of control

CC(=O)N1CCC(CC2CCCCC2)CC1
inactive: dose: 12.5 mg/kg/injection, schedule: Q04DX003 (ip), vehicle: saline 97 % of control | dose: 25.0 mg/kg/injection, schedule: Q04DX003 (ip), vehicle: saline 100 % of control | dose: 50.0 mg/kg/injection, schedule: Q04DX003 (ip), vehicle: saline 100 % of control

COc1cccc2cc[nH]c12
inactive: dose: 50.0 mg/kg/injection, schedule: Q01DX001 (ip), vehicle: carboxymethylcellulose (CMC) 105 % of control | [11] 100 % of control | [12] 112 % of control | [13] 100 % of control

COc1ccc(/C=C2/Oc3cc(O)ccc3C2=O)cc1
inactive: [14] 90 % of control | [15] 93 % of control | [16] 86 % of control

Cc1cc(N(CCO)Cc2ccccc2)nc2ccccc12
inactive: [10] 102 % of control

NC(=Nc1ccccc1)C(N)=Nc1ccccc1
inactive: dose: 100.0 mg/kg/injection, schedule: Q04DX002 (ip), vehicle: gum acacia 107 % of control | dose: 200.0 mg/kg/injection, schedule: Q04DX002 (ip), vehicle: gum acacia 96 % of control | dose: 400.0 mg/kg/injection, schedule: Q04DX002 (ip), vehicle: gum acacia 93 % of control

CC(=O)c1c(C)cc(C(C)(C)C)cc1C
inactive: dose: 100.0 mg/kg/injection, schedule: Q01DX009 (ip), vehicle: saline 97 % of control | [7] 105 % of control | dose: 200.0 mg/kg/injection, schedule: Q01DX009 (ip), vehicle: saline 100 % of control | [8] 92 % of control | dose: 400.0 mg/kg/injection, schedule: Q01DX009 (ip), vehicle: saline 108 % of control | [9] 100 % of control

O=C(COc1ccccc1)Nc1ccc(Br)cc1
inactive: dose: 100.0 mg/kg/injection, schedule: Q04DX002 (ip), vehicle: Klucel (hydroxypropylcellulose) (HPC) 103 % of control | dose: 200.0 mg/kg/injection, schedule: Q04DX002 (ip), vehicle: Klucel (hydroxypropylcellulose) (HPC) 103 % of control | dose: 400.0 mg/kg/injection, schedule: Q04DX002 (ip), vehicle: Klucel (hydroxypropylcellulose) (HPC) 95 % of control

O=[N+]([O-])c1ccc(S(=O)(=O)OCC2CO2)cc1 (centres undefined)
inactive: dose: 100.0 mg/kg/injection, schedule: Q01DX008 (ip), vehicle: Klucel (hydroxypropylcellulose) (HPC) 108 % of control | dose: 200.0 mg/kg/injection, schedule: Q01DX008 (ip), vehicle: Klucel (hydroxypropylcellulose) (HPC) 95 % of control | dose: 400.0 mg/kg/injection, schedule: Q01DX008 (ip), vehicle: Klucel (hydroxypropylcellulose) (HPC) 89 % of control

O=C(c1ccccc1)c1ccc(Oc2ccccc2)cc1
inactive: dose: 100.0 mg/kg/injection, schedule: Q04DX003 (ip), vehicle: gum acacia 91 % of control | dose: 200.0 mg/kg/injection, schedule: Q04DX003 (ip), vehicle: gum acacia 97 % of control | dose: 400.0 mg/kg/injection, schedule: Q04DX003 (ip), vehicle: gum acacia 91 % of control

O=C(O)C(Cl)Cl
inactive: [7] 98 % of control | [8] 93 % of control

C[N+]1(CCC[N+]2(C)CC3CC=CCC3C2)CCOCC1 (centres undefined)
inactive: [7] 92 % of control | [8] 92 % of control | [9] 92 % of control

O=C(NCCCl)NNC(=O)c1ccccc1
inactive: [1] 117 % of control | [2] 112 % of control

ICc1ccc(CI)cc1
inactive: dose: 25.0 mg/kg/injection, schedule: Q01DX009 (ip), vehicle: saline 100 % of control | dose: 100.0 mg/kg/injection, schedule: Q01DX001 (ip), vehicle: other 106 % of control | dose: 100.0 mg/kg/injection, schedule: Q04DX003 (ip), vehicle: acetone 106 % of control | dose: 200.0 mg/kg/injection, schedule: Q01DX001 (ip), vehicle: other 88 % of control | dose: 400.0 mg/kg/injection, schedule: Q01DX001 (ip), vehicle: other 88 % of control

O=C(O)c1cc(/C=C/c2ccccc2)ccc1[N+](=O)[O-]
inactive: [7] 103 % of control | [8] 97 % of control | [9] 100 % of control

CC1(C)C2CCC1(C)C(C(=O)C(F)(F)F)C2=O.CC1(C)C2CCC1(C)C(C(=O)C(F)(F)F)C2=O.[Mn] (centres undefined)
inactive: dose: 50.0 mg/kg/injection, schedule: Q04DX002 (ip), vehicle: saline with Tween-80 94 % of control | dose: 100.0 mg/kg/injection, schedule: Q04DX002 (ip), vehicle: saline with Tween-80 98 % of control | dose: 200.0 mg/kg/injection, schedule: Q04DX002 (ip), vehicle: saline with Tween-80 98 % of control
